Tests used:
Trypanosoma cruzi [1] = experiment: microbe, parasite or virus in culture; type: functional, organism-based, Tulahuen LacZ, Clone C4; settings: Trypanosoma cruzi, Tulahuen LacZ, Clone C4
[2] = DNDI: Cytotoxicity against L-6 rat myoblasts from skeletal muscle cells; settings: L6 rat skeletal muscle myoblast cells, IC50
Trypanosoma cruzi [3] = experiment: microbe, parasite or virus in culture; type: functional, Tulahuen LacZ, Clone C4; settings: Trypanosoma cruzi, Tulahuen LacZ, Clone C4

Structure (SMILES)	IC50 (Trypanosoma cruzi [1])	IC90 (Trypanosoma cruzi [3])	IC50 [2]
CC(C)(C)NC(=O)N1CCC(NC(c2ccc(C#N)cc2)c2cccnc2)CC1 (centres undefined)	0.585 µM	0.996 µM	> 100 µM
N#Cc1ccc(C(c2cccnc2)N2CCC(NC(=O)c3cscn3)CC2)cc1 (centres undefined)	0.174 µM	0.297 µM	> 100 µM
Cc1ncsc1C(=O)NC1CCN(C(c2ccc(C#N)cc2)c2cccnc2)CC1 (centres undefined)	0.071 µM	0.202 µM	> 100 µM
Cc1cc(C(=O)N2CCN(C(c3cccnc3)c3ccc(Cl)cc3F)CC2)no1 (centres undefined)	0.0665 µM	0.279 µM	69.7 µM
O=C(c1cscn1)N1CCC(NC(c2ccc(C(F)(F)F)cc2)c2cccnc2)CC1 (centres undefined)	0.218 µM	0.833 µM	> 100 µM
O=C(c1cscn1)N1CCC(NC(c2cccnc2)c2ccc(Cl)cc2F)CC1 (centres undefined)	0.241 µM	0.832 µM	> 100 µM
O=C(C1CCC1)N1CCN(C(c2cncnc2)c2ccc(Cl)cc2F)CC1 (centres undefined)	0.413 µM	0.868 µM	> 100 µM
O=C(NC1CC1)N1CCN(C(c2ccc(C(F)(F)F)cc2)c2cncnc2)CC1 (centres undefined)	> 1 µM	> 1 µM	> 100 µM
CC(C)(C)C(=O)N1CCN(C(c2cncnc2)c2ccc(Cl)cc2F)CC1 (centres undefined)	0.0805 µM	0.301 µM	> 100 µM
O=C(C1CC1)N1CCC(NC(c2cccnc2)c2ccc(Cl)cc2F)CC1 (centres undefined)	0.126 µM	0.584 µM	> 100 µM
O=C(NC1CC1)N1CCN(C(c2cncnc2)c2ccc(C(F)(F)F)cc2F)CC1 (centres undefined)	0.489 µM	0.792 µM	> 100 µM
N#Cc1ccc(C(NC2CCN(C(=O)c3ccccc3)CC2)c2cccnc2)cc1 (centres undefined)	0.433 µM	0.948 µM	> 100 µM
Cc1nc(C(=O)NC2CCN(C(c3ccc(C#N)cc3)c3cccnc3)CC2)cs1 (centres undefined)	0.065 µM	0.155 µM	> 100 µM
Cc1ncoc1C(=O)NC1CCN(C(c2ccc(C#N)cc2)c2cccnc2)CC1 (centres undefined)	0.183 µM	0.32 µM	> 100 µM
N#Cc1ccc(C(c2cccnc2)N2CCN(C(=O)C3CC3)CC2)cc1 (centres undefined)	0.281 µM	0.556 µM	> 100 µM
CS(=O)(=O)N1CCN(C(c2ccc(C#N)cc2)c2cccnc2)CC1 (centres undefined)	0.365 µM	0.734 µM	> 100 µM
O=C(c1cccc(C(O)(c2ccc(Cl)cc2)c2cccnc2)c1)N1CCC(O)CC1 (centres undefined)	0.119 µM	0.733 µM	> 100 µM
Cc1nc(C(=O)NC2CCN(C(c3ccc(C#N)cc3)c3cccnc3)CC2)co1 (centres undefined)	0.115 µM	0.272 µM	> 100 µM
O=C(c1ccccc1)N1CCC(NC(c2cccnc2)c2ccc(Cl)cc2F)CC1 (centres undefined)	0.058 µM	0.248 µM	70.9 µM
Cc1noc(N2CCN(C(c3ccc(C#N)cc3)c3cccnc3)CC2)n1 (centres undefined)	0.064 µM	0.127 µM	> 100 µM
CS(=O)(=O)N1CCC(NC(c2cccnc2)c2ccc(Cl)cc2F)CC1 (centres undefined)	0.135 µM	0.539 µM	> 100 µM
Cc1nc(N2CCC(NC(c3cccnc3)c3ccc(Cl)cc3F)CC2)no1 (centres undefined)	0.064 µM	0.14 µM	> 100 µM

Structure (SMILES)	IC50 (Trypanosoma cruzi [1])	IC90 (Trypanosoma cruzi [3])	IC50 [2]
Cc1nc(C)c(C(=O)NC2CCN(C(c3ccc(C#N)cc3)c3cccnc3)CC2)s1 (centres undefined)	0.059 µM	0.119 µM	> 100 µM
N#Cc1ccc(C(c2cccnc2)N2CCC(NC(=O)c3nccs3)CC2)cc1 (centres undefined)	0.139 µM	0.358 µM	> 100 µM
Cc1cc(C(=O)NC2CCN(C(c3ccc(C#N)cc3)c3cccnc3)CC2)[nH]n1 (centres undefined)	0.236 µM	0.67 µM	> 100 µM
Cc1oncc1C(=O)N1CCC(NC(c2ccc(C(F)(F)F)cc2)c2cccnc2)CC1 (centres undefined)	0.0695 µM	0.47 µM	> 100 µM
O=C(C1CC1)N1CCN(C(c2ccc(C(F)(F)F)cc2)c2cncnc2)CC1 (centres undefined)	0.332 µM	0.652 µM	> 100 µM
N#Cc1ccc(C(c2cccnc2)N2CCN(C(=O)NC3CC3)CC2)cc1 (centres undefined)	> 1 µM	> 1 µM	> 100 µM
Cc1ncsc1C(=O)N1CCN(C(c2ccc(C#N)cc2)c2cccnc2)CC1 (centres undefined)	0.513 µM	> 1 µM	> 100 µM
CS(=O)(=O)N1CCN(C(c2ccc(C(F)(F)F)cc2)c2cncnc2)CC1 (centres undefined)	0.768 µM	> 1 µM	> 100 µM
Cc1noc(N2CCN(C(c3ccc(C(F)(F)F)cc3)c3cncnc3)CC2)n1 (centres undefined)	0.193 µM	0.379 µM	> 100 µM
O=C(c1ccno1)N1CCC(NC(c2ccc(C(F)(F)F)cc2)c2cccnc2)CC1 (centres undefined)	0.09 µM	0.271 µM	> 100 µM
CC(C)(C)NC(=O)N1CCC(NC(c2cccnc2)c2ccc(Cl)cc2F)CC1 (centres undefined)	0.0795 µM	0.427 µM	> 100 µM
O=C(C1CC1)N1CCN(C(c2cncnc2)c2ccc(C(F)(F)F)cc2F)CC1 (centres undefined)	0.177 µM	0.332 µM	> 100 µM
O=C(c1nccs1)N1CCC(NC(c2ccc(C(F)(F)F)cc2)c2cccnc2)CC1 (centres undefined)	0.057 µM	0.455 µM	> 100 µM
FC(F)(F)c1ccc(C(c2cncnc2)N2CCN(c3nccs3)CC2)cc1 (centres undefined)	0.109 µM	0.266 µM	68.2 µM
CS(=O)(=O)N1CCN(C(c2ccc(C(F)(F)F)cc2)c2cccnc2)CC1 (centres undefined)	0.0765 µM	0.572 µM	> 100 µM
CC(C)(C)C(=O)N1CCN(C(c2ccc(C#N)cc2)c2cccnc2)CC1 (centres undefined)	0.254 µM	0.696 µM	> 100 µM
Cc1nocc1C(=O)NC1CCN(C(c2ccc(C#N)cc2)c2cccnc2)CC1 (centres undefined)	0.055 µM	0.101 µM	> 100 µM
N#Cc1ccc(C(c2cccnc2)N(C(=O)C2CC2)C2CCN(C(=O)C3CC3)CC2)cc1 (centres undefined)	> 10 µM	> 10 µM	> 100 µM
O=C(N1CCN(C(c2ccc(C(F)(F)F)cc2)c2cccnc2)CC1)C(F)(F)F (centres undefined)	0.321 µM	0.797 µM	62.6 µM
N#Cc1ccc(C(c2cccnc2)N2CCC(NC(=O)c3ccc(C(F)(F)F)cc3F)CC2)cc1 (centres undefined)	0.345 µM	0.696 µM	76.8 µM
CC(C)OCCCNC(=O)c1cccc(C(O)(c2ccc(Cl)cc2)c2cccnc2)c1 (centres undefined)	0.0975 µM	0.232 µM	74.8 µM
Cc1nc(C)c(C(=O)N2CCC(NC(c3ccc(C(F)(F)F)cc3)c3cccnc3)CC2)s1 (centres undefined)	0.215 µM	0.657 µM	> 100 µM

Stronger by IC50 (Trypanosoma cruzi [1]), values ahead:

IC50 (Trypanosoma cruzi [1])	IC90 (Trypanosoma cruzi [3])	Structure (SMILES)	IC50 [2]
0.0515 µM	0.104 µM	Cc1noc(C)c1C(=O)NC1CCN(C(c2ccc(C#N)cc2)c2cccnc2)CC1 (centres undefined)	> 100 µM
0.0505 µM	0.183 µM	O=C(C1CC1)N1CCN(C(c2ccc(C(F)(F)F)cc2)c2cccnc2)CC1 (centres undefined)	> 100 µM
0.05 µM	0.103 µM	Cc1cc(C(=O)NC2CCN(C(c3ccc(C#N)cc3)c3cccnc3)CC2)no1 (centres undefined)	> 100 µM
0.0495 µM	0.159 µM	N#Cc1ccc(C(c2cccnc2)N2CCN(c3nccs3)CC2)cc1 (centres undefined)	> 100 µM
0.039 µM	0.367 µM	N#Cc1ccc(C(c2cccnc2)N2CCC(NC(=O)c3cccc(F)c3)CC2)cc1 (centres undefined)	> 100 µM
0.0295 µM	0.241 µM	O=C(NC1CCN(C(c2cncnc2)c2ccc(Cl)cc2F)CC1)c1cccc(F)c1F (centres undefined)	75.8 µM
0.025 µM	0.332 µM	OC(c1ccc(Cl)cc1)(c1cccnc1)c1cnc(OCC2CC2)nc1 (centres undefined)	60.4 µM
0.0245 µM	0.355 µM	NC(=O)c1cccc(C(O)(c2cccnc2)c2ccc(Cl)cc2F)c1 (centres undefined)	> 100 µM
0.0245 µM	0.0725 µM	CS(=O)(=O)N1CCN(C(c2cncnc2)c2ccc(C(F)(F)F)cc2F)CC1 (centres undefined)	> 100 µM
0.0235 µM	0.402 µM	N#Cc1ccc(C(c2cccnc2)N2CCC(NC(=O)c3ccccc3F)CC2)cc1 (centres undefined)	> 100 µM
0.023 µM	0.0755 µM	N#Cc1ccc(C(c2cccnc2)N2CCC(NC(=O)c3cccc(C(F)(F)F)c3)CC2)cc1 (centres undefined)	> 100 µM
0.0225 µM	0.104 µM	O=C(NC1CCN(C(c2cncnc2)c2ccc(Cl)cc2F)CC1)c1cc(F)ccc1F (centres undefined)	74.1 µM
0.0205 µM	0.0765 µM	N#Cc1ccc(C(c2cccnc2)N2CCC(NC(=O)c3ccc(C(F)(F)F)cc3)CC2)cc1 (centres undefined)	65.7 µM
0.0185 µM	0.122 µM	N#Cc1ccc(C(c2cccnc2)N2CCC(NC(=O)c3ccc(F)cc3)CC2)cc1 (centres undefined)	> 100 µM
0.017 µM	0.0555 µM	N#Cc1ccc(C(c2cccnc2)N2CCC(NC(=O)c3cccc(F)c3F)CC2)cc1 (centres undefined)	> 100 µM
0.0155 µM	0.049 µM	N#Cc1ccc(C(c2cccnc2)N2CCC(NC(=O)c3cc(F)ccc3F)CC2)cc1 (centres undefined)	> 100 µM
0.0155 µM	0.204 µM	O=C(NC1CCN(C(c2cncnc2)c2ccc(Cl)cc2F)CC1)c1c(F)cccc1F (centres undefined)	82.3 µM
0.015 µM	0.114 µM	O=C(NC1CCN(C(c2cncnc2)c2ccc(Cl)cc2F)CC1)c1ccc(F)cc1F (centres undefined)	81 µM
0.011 µM	0.0829 µM	O=C(NC1CCN(C(c2cncnc2)c2ccc(Cl)cc2F)CC1)c1ccc(F)cc1C(F)(F)F (centres undefined)	71.4 µM
0.0105 µM	0.0925 µM	FC(F)(F)c1ccc(C(NC2CCN(c3ncccn3)CC2)c2cccnc2)cc1 (centres undefined)	55.1 µM
0.01 µM	0.04 µM	N#Cc1ccc(C(c2cccnc2)N2CCC(NC(=O)c3ccc(F)cc3F)CC2)cc1 (centres undefined)	> 100 µM
0.009 µM	0.0655 µM	Fc1cc(Cl)ccc1C(NC1CCN(c2nccs2)CC1)c1cccnc1 (centres undefined)	56.2 µM
0.00687 µM	0.0296 µM	N#Cc1ccc(C(c2cccnc2)N2CCC(NC(=O)c3ccc(F)cc3C(F)(F)F)CC2)cc1 (centres undefined)	78.5 µM
0.0045 µM	0.01 µM	Fc1cc(Cl)ccc1C(NC1CCN(c2ccccc2F)CC1)c1cccnc1 (centres undefined)	53.2 µM

From ChEMBL document CHEMBL1862790, “Optimisation of fenarimol series for the treatment of Chagas disease”
